Tested on: ovariectomized rats
Test: Inhibitory effect on the increase of urinary hydroxyproline excretion by ovariectomy (Test Example 1)
Type: in vivo, SD strain rats
Conditions: Rattus norvegicus, po, 336 h; ovariectomized female SD rats; test compound 10 mg/kg suspended in 0.3% Tween, orally once a day for two weeks; 24 h urine, hydroxyproline/creatinine molar ratio; versus ovariectomized control and sham-operated rats; read-out: Inhibition rate of increase of the amount of urinary hydroxyproline excretion
Procedure: The inhibitory effect of the compounds of the present application on bone resorption was determined by their inhibitory effect on the excretion of urinary hydroxyproline which is elevated by ovariectomy of the animals tested, according to the report of Kalu et al. [Bone and Mineral., 14, 175 (1991)].
Test Example 1: Inhibitory effect on the increase of urinary hydroxyproline excretion by ovariectomy
12-weeks-old female SD strain rats (Japan Clea Co., Ltd.) were acclimated for 1 week during which they were given tap water and a standard diet (F2; Funabashi Farmas) ad libitum. The experiment was carried out using the rats weighing 270-310 g. After the animals were subjected to sham operation or bilateral ovariectomy, they were allowed free access to water passed through ion exchange resin instead of tap water, and were housed in individual cages. The test compound (10 mg/kg) was suspended in 0.3% Tween, and the obtained suspension was orally administered to the ovariectomized rats once a day for two weeks starting from the day following ovariectomy (0.5 ml/100 g body weight). 0.3% Tween was similarly administered to sham-operated rats and ovariectomized control rats. After the final administration, the rats were placed in individual metabolic cages and fasted during 24 hours, and urine was collected. The volume of the collected urine was measured and the urine was centrifuged at 3,000 rpm for 15 min at 4°C. The concentration of hydroxyproline in the supernatant was measured by the method of Ikeda et al. [Ann. Rep. Tokyo Metr. Res. Lab. P. H., 36, 277-282 (1985)] and the concentration of creatinine in the supernatant was measured with creatinine test WAKO (Wako Pure Chem.) The amount of urinary hydroxyproline excretion was expressed by the molar ratio of the amount of hydroxyproline to the amount of creatinine. The rate of inhibition on increase of the amount of urinary hydroxyproline excretion in ovariectomized rats treated with the test compound compared to that of the control group was calculated using the following equation. Inhibition rate (%) = [(P1 - P2)/(P1 - P3)] x 100 [formula] • P1 : The amount of urinary hydroxyproline excretion in ovariectomized rats treated with 0.3% Tween (µmol/mmol). • P2 : The amount of urinary hydroxyproline excretion in ovariectomized rats treated with the test compound (µmol/mmol). • P3 : The amount of urinary hydroxyproline in sham-operated rats treated with 0.3% Tween (µmol/mmol).

Structure (SMILES) | inhibition in vivo at 10 mg/kg
CN(C)CCn1c(C(=O)NCCN2CCCCC2)c(C(c2ccc(O)cc2)c2ccc(O)cc2)c2ccccc21 [Compound 25, N-(2-Piperidinoethyl)-3-[bis(4-hydroxyphenyl)methyl]-1-(2-dimethylaminoethyl)indole-2-carboxamide] | 100%
CN(C)CCn1c(C(=O)NCC2CCCO2)c(C(c2ccc(O)cc2)c2ccc(O)cc2)c2ccccc21 (stereo not drawn) [Compound 37, N-(2-Tetrahydrofuranylmethyl)-3-[bis(4-hydroxyphenyl)methyl]-1-(2-dimethylaminoethyl)indole-2-carboxamide] | 100%
CN(C)CCn1c(C(=O)NCc2cccnc2)c(C(c2ccc(O)cc2)c2ccc(O)cc2)c2ccccc21 [Compound 29, N-(3-Pyridylmethyl)-3-[bis(4-hydroxyphenyl)methyl]-1-(2-dimethylaminoethyl)indole-2-carboxamide] | 30%
CN(C)CCn1c(C(=O)NCCc2ccncc2)c(C(c2ccc(O)cc2)c2ccc(O)cc2)c2ccccc21 [Compound 32, N-[2-(4-Pyridyl)ethyl]-3-[bis(4-hydroxyphenyl)methyl]-1-(2-dimethylaminoethyl)indole-2-carboxamide] | 100%
CN(C)CCn1c(C(=O)NCCC2CCCN2C)c(C(c2ccc(O)cc2)c2ccc(O)cc2)c2ccccc21 (stereo not drawn) [Compound 34, N-[2-(1-Methyl-2-pyrrolidinyl)ethyl]-3-[bis(4-hydroxyphenyl)methyl]-1-(2-dimethylaminoethyl)indole-2-carboxamide] | 100%
CN(C)CCN(C)C(=O)c1c(C(c2ccc(O)cc2)c2ccc(O)cc2)c2ccccc2n1CCN(C)C [Compound 22, N-(2-Dimethylaminoethyl)-N-methyl-3-[bis(4-hydroxyphenyl)methyl]-1-(2-dimethylaminoethyl)indole-2-carboxamide] | 100%
CCN1CCCC1CNC(=O)c1c(C(c2ccc(O)cc2)c2ccc(O)cc2)c2ccccc2n1CCN(C)C (stereo not drawn) [Compound 33, N-[(1-Ethyl-2-pyrrolidinyl)methyl]-3-[bis(4-hydroxyphenyl)methyl]-1-(2-dimethylaminoethyl)indole-2-carboxamide] | 100%
CN(C)CCn1c(C(=O)NCCCN2CCOCC2)c(C(c2ccc(O)cc2)c2ccc(O)cc2)c2ccccc21 [Compound 27, N-(3-Morpholinopropyl)-3-[bis(4-hydroxyphenyl)methyl]-1-(2-dimethylaminoethyl)indole-2-carboxamide] | 30%
CN(C)CCn1c(C(=O)NCc2ccncc2)c(C(c2ccc(O)cc2)c2ccc(O)cc2)c2ccccc21 [Compound 30, N-(4-Pyridylmethyl)-3-[bis(4-hydroxyphenyl)methyl]-1-(2-dimethylaminoethyl)indole-2-carboxamide] | 100%

From patent EP0782988A1, “INDOLE DERIVATIVES” (KYOWA HAKKO KOGYO CO., LTD., priority 1995, dated 1997)
